Eleven molecules from ChEMBL document CHEMBL4680354, “Design, synthesis and biological evaluation of novel indanone containing spiroisoxazoline derivatives with selective COX-2 inhibition as anticancer agents” (Bioorg Med Chem, 2021) can be followed below.

For test [1], the target named is T1, Prostaglandin G/H synthase 1 (Ovis aries, UniProt P05979).
T1 sequence (P05979 whole entry): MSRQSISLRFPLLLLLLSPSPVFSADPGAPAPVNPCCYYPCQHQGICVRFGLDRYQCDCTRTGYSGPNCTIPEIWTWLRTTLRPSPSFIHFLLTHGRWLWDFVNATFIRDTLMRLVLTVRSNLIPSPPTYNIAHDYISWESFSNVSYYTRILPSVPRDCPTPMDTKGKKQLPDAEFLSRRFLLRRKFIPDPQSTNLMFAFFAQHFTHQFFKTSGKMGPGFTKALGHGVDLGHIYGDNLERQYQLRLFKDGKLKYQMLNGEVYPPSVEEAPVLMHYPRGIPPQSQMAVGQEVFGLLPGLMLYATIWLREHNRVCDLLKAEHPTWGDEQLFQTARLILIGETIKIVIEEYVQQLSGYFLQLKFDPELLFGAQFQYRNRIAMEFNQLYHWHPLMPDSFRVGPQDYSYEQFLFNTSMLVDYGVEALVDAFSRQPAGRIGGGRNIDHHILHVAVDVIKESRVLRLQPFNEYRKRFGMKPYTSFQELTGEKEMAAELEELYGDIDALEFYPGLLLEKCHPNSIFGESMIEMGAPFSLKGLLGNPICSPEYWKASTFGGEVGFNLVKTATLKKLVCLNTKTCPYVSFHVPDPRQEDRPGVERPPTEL
The experiment in a line: Inhibition of Ovine COX-1 by chemiluminescent enzyme method.

Test [2] relates to MCF7. The experiment in a line: Induction of apoptosis in human MCF7 cells assessed as necrotic cells at IC50 measured after 72 hrs by Annexin-V/propidium iodide staining-based flow cytometric analysis (reference value: 4.7%). In kind it is functional.
The subject of test [3] is MCF7. The experiment in a line: Antiproliferative activity against human cells MCF-7 assessed as reduction in cell viability incubated for 48 hrs by MTT assay. It is filed as functional, cell-based. Particulars: MCF7, 48 h.
Test [4] deals with MCF7. The experiment in a line: Induction of apoptosis in human MCF7 cells assessed as late apoptotic cells at IC50 measured after 72 hrs by Annexin-V/propidium iodide staining-based flow cytometric analysis (reference value: 92.7%). It is filed as functional. In general terms: A flow cytometer gives signals particle by particle.
In test [5] the test system is MCF7. Nature of the test: Induction of apoptosis in human MCF7 cells assessed as early apoptotic cells at IC50 measured after 72 hrs by Annexin-V/propidium iodide staining-based flow cytometric analysis (reference value: 1.1%). It is filed as functional.
Test [6] has as its system MCF7. The experiment in a line: Antiproliferative activity against human MCF-7 cells assessed as reduction in cell viability incubated for 72 hrs by MTT assay. The following applies: MCF7, 72 h. In kind it is functional, cell-based. A general note: Tetrazolium assays rely on reduction of a dye to a coloured formazan, in cell work by metabolically active cells.
Test [7] relates to HEK293. Nature of the test: Cytotoxicity against human HEK293 cells assessed as reduction in cell viability incubated for 72 hrs by MTT assay. It is filed as cell-based. Particulars: HEK293, 72 h.
Test [8] has as its system MCF7. The experiment in a line: Antiproliferative activity against human cells MCF-7 assessed as reduction in cell viability incubated for 24 hrs by MTT assay. The following applies: MCF7, 24 h. In kind it is functional, cell-based.
The test system of test [9] is MCF7. The experiment in a line: Induction of apoptosis in human MCF7 cells assessed as viable cells at IC50 measured after 72 hrs by Annexin-V/propidium iodide staining-based flow cytometric analysis (reference value: […]). It is filed as functional.
Test [10] concerns HT-29. Nature of the test: Antiproliferative activity against human HT-29 cells assessed as reduction in cell viability incubated for 72 hrs by MTT assay. Particulars: HT-29, 72 h. In kind it is functional, cell-based.
The test system of test [11] is MCF-10A. The experiment in a line: Antiproliferative activity against human MCF10A cells assessed as reduction in cell viability incubated for 72 hrs by MTT assay. In kind it is functional, cell-based.

Take `COc1ccc(C2=NOC3(Cc4ccccc4C3=O)C2c2ccc(S(C)(=O)=O)cc2)cc1OC` (configuration not stated): the IC50 (commonly the concentration that inhibits the measured activity by half) in test [1] was 12.1 µM; in test [3] it was 1.03 µM; in [6] it was 0.03 µM; in test [7], greater than 100 µM; in test [8] it was 10.5 µM; in test [10] it was 43.7 µM. The IC50 in test [11] was greater than 100 µM. The Activity in test [2] is reported as 15.6%; in [4], 44.7%; in test [5], 37.2%; in test [9] it was 2.5%.

Take `COc1ccc(C2=NOC3(Cc4ccccc4C3=O)C2c2ccc(S(C)(=O)=O)cc2)cc1` (configuration not stated): the IC50 in [1] is 9.89 µM; in test [3], greater than 100 µM; in [6] it was 0.65 µM; in test [7], greater than 100 µM; in [10] it was 68.5 µM; in test [11] it was greater than 100 µM.

Turning to `Cc1ccc(C2=NOC3(Cc4ccccc4C3=O)C2c2ccc(S(C)(=O)=O)cc2)cc1` (configuration not stated), the IC50 in [1] is 10.1 µM; in [3], 25.7 µM; in test [6] it was 0.17 µM; in [7], 82.4 µM; in [10], 73 µM; in test [11], greater than 100 µM.

Take `CS(=O)(=O)c1ccc(C2C(c3ccccc3)=NOC23Cc2ccccc2C3=O)cc1` (configuration not stated): the IC50 in test [1] was 11.4 µM; in test [3], 17.1 µM; in test [6] it was 8.53 µM; in [7], greater than 100 µM; in [10] it was 239 µM; in [11] it was greater than 100 µM.

As to `COc1cc(C2=NOC3(Cc4ccccc4C3=O)C2c2ccc(S(C)(=O)=O)cc2)cc(OC)c1OC` (configuration not stated), the half-inhibitory concentration (IC50) in [1] was determined as 12.8 µM; in [3] it was 3.96 µM; in [6] it was 0.87 µM; in test [7], 70.8 µM; in [8] it was 17.6 µM; in test [10], 112 µM. Further, the half-inhibitory concentration (IC50) in [11] was greater than 100 µM.

With `CS(=O)(=O)c1ccc(C2C(c3ccc(Cl)cc3)=NOC23Cc2ccccc2C3=O)cc1` (configuration not stated), the IC50 was 9.43 µM in test [1]; 64.8 µM in [3]; 1.2 µM in test [6]; 37.7 µM in test [7]; 99.3 µM in [10]; 22.5 µM in test [11].

`CS(=O)(=O)c1ccc(C2C(c3ccc(F)cc3)=NOC23Cc2ccccc2C3=O)cc1` (configuration not stated): the IC50 in test [1] is 10.8 µM; in [3], 16.5 µM; in test [6] it was 0.14 µM; in test [7] it was 0.64 µM; in test [10], 55.4 µM; in test [11], 3.21 µM.

For `Cc1ccc(-c2cc(C(F)(F)F)nn2-c2ccc(S(N)(=O)=O)cc2)cc1` [CELECOXIB], the figures for the IC50 in [3], in [8] and in test [10] were 16 µM, 19.8 µM and 18 µM, respectively.

Turning to `COc1cccc2c1C(=O)c1c(O)c3c(c(O)c1C2=O)C[C@@](O)(C(=O)CO)C[C@@H]3O[C@H]1C[C@H](N)[C@H](O)[C@H](C)O1` [DOXORUBICIN], the IC50 in test [10] was 1.57 µM.

Consider `CC[C@]1(O)C[C@@H]2CN(CCc3c([nH]c4ccccc34)[C@@](C(=O)OC)(c3cc4c(cc3OC)N(C)[C@H]3[C@@](O)(C(=O)OC)[C@H](OC(C)=O)[C@]5(CC)C=CCN6CC[C@]43[C@@H]65)C2)C1` [VINBLASTINE], for which the IC50 in [8] was 0.23 µM; in test [10], 3.18 µM.

As for `CC[C@]1(O)C[C@H]2CN(CCc3c([nH]c4ccccc34)[C@@](C(=O)OC)(c3cc4c(cc3OC)N(C=O)[C@H]3[C@@](O)(C(=O)OC)[C@H](OC(C)=O)[C@]5(CC)C=CCN6CC[C@]43[C@@H]65)C2)C1` [VINCRISTINE], the values for the IC50 in test [6], in test [8] and in test [10] were 0.89 µM, 0.92 µM and 1.74 µM, respectively.
